Test results taken from paper PMC5896380, “Selective imaging of cathepsin L in breast cancer by fluorescent activity-based probes” (Chemical Science, 2018).
Non-standard residues stand in square brackets, D forms with d. *: point of attachment. Phe(3,4-Cl2) = N[C@@H](Cc1ccc(Cl)c(Cl)c1)C(=O)O; Phe(F5) = N[C@@H](Cc1c(F)c(F)c(F)c(F)c1F)C(=O)O; Phe(3-F) = N[C@@H](Cc1cccc(F)c1)C(=O)O; Phe(4-F) = N[C@@H](Cc1ccc(F)cc1)C(=O)O; ACC = NC(=O)Cc1cc(=O)oc2cc(N*)ccc12; Orn = NCCC[C@H](N)C(=O)O; Mob = COc1ccc(C*)cc1; Meb = Cc1ccc(C*)cc1; Bn = c1ccc(C*)cc1

Legend:
Assay type in all cases: biochemical
[1] = molecular target: T1, cathepsin L (Homo sapiens, UniProt P07711); assay: Substrate selectivity screening, rate of hydrolysis, cathepsin L; conditions: Table S4; substrate 100µM, cathepsin 5nM; pH 5.5, 37 °C; average of at least three screenings
T1 construct: made in house
T1 sequence (P07711 114-333): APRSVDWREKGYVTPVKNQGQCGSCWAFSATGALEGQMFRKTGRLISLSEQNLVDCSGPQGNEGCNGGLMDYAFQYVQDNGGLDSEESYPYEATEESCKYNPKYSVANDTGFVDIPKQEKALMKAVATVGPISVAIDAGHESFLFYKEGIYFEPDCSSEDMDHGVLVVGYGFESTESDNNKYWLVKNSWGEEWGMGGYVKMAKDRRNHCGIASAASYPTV
Procedure: (§1) All kinetic experiments were performed using fMax (Molecular Devices) and CLARIOStar (BMG LABTECH) spectrofluorimeters operating in kinetic mode using 96-well plates. ACC-labeled substrates were screened using 355 nm and 460 nm wavelengths (excitation and emission, respectively). […] The buffer was prepared at room temperature and the enzyme kinetic studies were performed at 37 °C.
(§2) All potentially selective cathepsin L substrates were tested for their selectivity against a panel of five different cathepsins, containing cathepsins L, V, S, K and […], at concentrations of 2 μM and 100 μM. To obtain reliable results the concentration of each cathepsin was 5 nM. Substrate hydrolysis was carried out for 10 min (for cathepsin L) and for up to 60 min (for other cathepsins). Hydrolysis rates (RFU s^–1) are presented as average values from at least three screenings.

[2] = molecular target: T2, cathepsin B (Homo sapiens, UniProt P07858); assay: Substrate selectivity screening, rate of hydrolysis, cathepsin B; conditions: Table S4; substrate 100µM, cathepsin 5nM; pH 5.5, 37 °C; average of at least three screenings
T2 construct: made in house
Procedure: as §1, §2

[3] = molecular target: T3, cathepsin S (Homo sapiens, UniProt P25774); assay: Substrate selectivity screening, rate of hydrolysis, cathepsin S; conditions: Table S4; substrate 100µM, cathepsin 5nM; pH 5.5, 37 °C; average of at least three screenings
T3 construct: made in house
T3 sequence (P25774 115-331): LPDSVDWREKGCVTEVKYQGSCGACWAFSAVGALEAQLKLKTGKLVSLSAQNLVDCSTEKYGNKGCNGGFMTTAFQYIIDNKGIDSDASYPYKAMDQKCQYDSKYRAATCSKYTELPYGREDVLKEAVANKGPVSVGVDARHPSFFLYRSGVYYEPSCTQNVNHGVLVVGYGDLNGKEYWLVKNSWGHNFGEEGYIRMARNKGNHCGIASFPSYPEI
Procedure: as §1, §2

[4] = molecular target: T4, cathepsin K (Homo sapiens, UniProt P43235); assay: Substrate selectivity screening, rate of hydrolysis, cathepsin K; conditions: Table S4; substrate 100µM, cathepsin 5nM; pH 5.5, 37 °C; average of at least three screenings
T4 construct: made in house
T4 sequence (P43235 115-329): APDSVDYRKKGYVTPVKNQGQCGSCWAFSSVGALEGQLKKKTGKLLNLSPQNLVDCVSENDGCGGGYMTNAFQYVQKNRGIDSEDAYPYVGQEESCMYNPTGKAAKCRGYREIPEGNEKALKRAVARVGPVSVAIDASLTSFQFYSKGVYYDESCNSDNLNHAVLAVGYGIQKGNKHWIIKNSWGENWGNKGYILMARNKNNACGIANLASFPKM
Procedure: as §1, §2

[5] = molecular target: T5, cathepsin V (Homo sapiens, UniProt O60911); assay: Substrate selectivity screening, rate of hydrolysis, cathepsin V; conditions: Table S4; substrate 100µM, cathepsin 5nM; pH 5.5, 37 °C; average of at least three screenings
T5 construct: made in house
T5 sequence (O60911 114-334): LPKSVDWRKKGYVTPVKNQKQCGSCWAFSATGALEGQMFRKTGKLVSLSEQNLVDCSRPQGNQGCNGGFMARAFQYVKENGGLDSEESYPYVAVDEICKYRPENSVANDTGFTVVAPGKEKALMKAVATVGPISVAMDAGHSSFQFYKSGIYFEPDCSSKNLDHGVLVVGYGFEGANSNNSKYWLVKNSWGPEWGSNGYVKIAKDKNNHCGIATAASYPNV
Procedure: as §1, §2

[6] = molecular target: T4, cathepsin K; assay: Kinetic parameters of ACC substrates with cathepsin K; conditions: for kcat/KM Cath-K: Fig. 5B, pH 5.5, 37 °C, cathepsin K 5–20 nM, triplicate, SD below 15%
Procedure: as §1
(§3) Classic substrate velocity plots were analyzed according to Michaelis–Menten kinetics and a detailed protocol for the determination of kinetic parameters for ACC-tagged substrates is found elsewhere.[56] […] Experiments were repeated at least three times and results are presented as an average. The SDs were below 15%.

[7] = molecular target: T1, cathepsin L; assay: Kinetic parameters of ACC substrates with cathepsin L; conditions: for kcat/KM Cath-L: Fig. 5B, pH 5.5, 37 °C, cathepsin L 0.1–0.5 nM, triplicate, SD below 15%
Procedure: as §1, §3

[8] = molecular target: T5, cathepsin V; assay: Kinetic parameters of ACC substrates with cathepsin V; conditions: for kcat/KM Cath-V: Fig. 5B, pH 5.5, 37 °C, cathepsin V 10–20 nM, triplicate, SD below 15%
Procedure: as §1, §3

[9] = molecular target: T3, cathepsin S; assay: Kinetic parameters of ACC substrates with cathepsin S; conditions: for kcat/KM Cath-S: Fig. 5B, pH 5.5, 37 °C, cathepsin S 5–20 nM, triplicate, SD below 15%
Procedure: as §1, §3

[10] = molecular target: T2, cathepsin B; assay: Kinetic parameters of ACC substrates with cathepsin B; conditions: for kcat/KM Cath-B: Fig. 5B, pH 5.5, 37 °C, cathepsin B 4–15 nM, triplicate, SD below 15%
Procedure: as §1, §3

[11] = Table S7, four independent experiments, S.D. below 15%

| Substance | Relative substrate activity (rate of hydrolysis), cathepsin L [1] [RFU/s] | Relative substrate activity (rate of hydrolysis), cathepsin B [2] [RFU/s] | Relative substrate activity (rate of hydrolysis), cathepsin S [3] [RFU/s] | Relative substrate activity (rate of hydrolysis), cathepsin K [4] [RFU/s] | Relative substrate activity (rate of hydrolysis), cathepsin V [5] [RFU/s] | kcat/KM Cath-K [6] | kcat/KM Cath-L [7] | kcat/KM Cath-V [8] | kcat/KM Cath-S [9] | kcat/KM Cath-B [10] | also measured |
| --- | --- | --- | --- | --- | --- | --- | --- | --- | --- | --- | --- |
| Ac-A[Orn][Phe(3,4-Cl2)]R-{ACC} (SMILES CC(=O)N[C@@H](C)C(=O)N[C@@H](CCCN)C(=O)N[C@@H](Cc1ccc(Cl)c(Cl)c1)C(=O)N[C@@H](CCCNC(=N)N)C(=O)Nc1ccc2c(CC(N)=O)cc(=O)oc2c1) | 844 | 189 | 3.4 | 4.6 | 346 | – | – | – | – | – | – |
| Ac-A[dK]K(Ac)R-{ACC} (SMILES CC(=O)NCCCC[C@H](NC(=O)[C@@H](CCCCN)NC(=O)[C@H](C)NC(C)=O)C(=O)N[C@@H](CCCNC(=N)N)C(=O)Nc1ccc2c(CC(N)=O)cc(=O)oc2c1) | 25.3 | 16.9 | 0.0 | 1.2 | 0.0 | – | – | – | – | – | – |
| Ac-H[dL][Phe(3,4-Cl2)]R-{ACC} (SMILES CC(=O)N[C@@H](Cc1c[nH]cn1)C(=O)N[C@H](CC(C)C)C(=O)N[C@@H](Cc1ccc(Cl)c(Cl)c1)C(=O)N[C@@H](CCCNC(=N)N)C(=O)Nc1ccc2c(CC(N)=O)cc(=O)oc2c1) | 901 | 65.1 | 4.4 | 1.5 | 306 | – | – | – | – | – | – |
| Ac-H[dV][Phe(3-F)]R-{ACC} (SMILES CC(=O)N[C@@H](Cc1c[nH]cn1)C(=O)N[C@@H](C(=O)N[C@@H](Cc1cccc(F)c1)C(=O)N[C@@H](CCCNC(=N)N)C(=O)Nc1ccc2c(CC(N)=O)cc(=O)oc2c1)C(C)C) | – | – | – | – | – | 5,700 M^-1s^-1 | 8,432,000 M^-1s^-1 | 12,600 M^-1s^-1 | 814 M⁻¹ s⁻¹ | 6,280 M^-1s^-1 | – |
| Ac-H[dV][Phe(4-F)]R-{ACC} (SMILES CC(=O)N[C@@H](Cc1c[nH]cn1)C(=O)N[C@@H](C(=O)N[C@@H](Cc1ccc(F)cc1)C(=O)N[C@@H](CCCNC(=N)N)C(=O)Nc1ccc2c(CC(N)=O)cc(=O)oc2c1)C(C)C) | – | – | – | – | – | 2,580 M^-1s^-1 | 6,991,000 M^-1s^-1 | 14,550 M^-1s^-1 | 1,800 M^-1s^-1 | 3,100 M^-1s^-1 | – |
| Ac-H[dV][Phe(F5)]C(Bn)-{ACC} (SMILES CC(=O)N[C@@H](Cc1c[nH]cn1)C(=O)N[C@@H](C(=O)N[C@@H](Cc1c(F)c(F)c(F)c(F)c1F)C(=O)N[C@@H](CSCc1ccccc1)C(=O)Nc1ccc2c(CC(N)=O)cc(=O)oc2c1)C(C)C) | – | – | – | – | – | 190 M⁻¹ s⁻¹ | 732,900 M^-1s^-1 | 1,250 M^-1s^-1 | < 10 M⁻¹ s⁻¹ | 1,370 M^-1s^-1 | kcat Cat K [6, 11]: 0.00221 s⁻¹; kcat/KM Cat K [6, 11]: 190 M⁻¹ s⁻¹; Km ([6]; Table S7, four independent experiments, S.D. below 15%, read-out: KM Cat K): 11.5 µM; kcat Cat L [7, 11]: 4.21 s⁻¹; kcat/KM Cat L [7, 11]: 732,900 M-1s-1; Km ([7]; Table S7, four independent experiments, S.D. below 15%, read-out: KM Cat L): 5.67 µM; kcat Cat V [8, 11]: 0.00971 s⁻¹; kcat/KM Cat V [8, 11]: 1,250 M-1s-1; Km ([8]; Table S7, four independent experiments, S.D. below 15%, read-out: KM Cat V): 7.76 µM; kcat/KM Cat S [9, 11]: < 10 M⁻¹ s⁻¹; kcat Cat B [10, 11]: 0.0115 s⁻¹; kcat/KM Cat B [10, 11]: 1,370 M-1s-1; Km ([10]; Table S7, four independent experiments, S.D. below 15%, read-out: KM Cat B): 8.19 µM |
| Ac-H[dV][Phe(F5)]C(Meb)-{ACC} (SMILES CC(=O)N[C@@H](Cc1c[nH]cn1)C(=O)N[C@@H](C(=O)N[C@@H](Cc1c(F)c(F)c(F)c(F)c1F)C(=O)N[C@@H](CSCc1ccc(C)cc1)C(=O)Nc1ccc2c(CC(N)=O)cc(=O)oc2c1)C(C)C) | – | – | – | – | – | < 10 M⁻¹ s⁻¹ | 1,476,000 M^-1s^-1 | 1,740 M^-1s^-1 | < 10 M⁻¹ s⁻¹ | 2,290 M^-1s^-1 | – |
| Ac-H[dV][Phe(F5)]C(Mob)-{ACC} (SMILES COc1ccc(CSC[C@H](NC(=O)[C@H](Cc2c(F)c(F)c(F)c(F)c2F)NC(=O)[C@H](NC(=O)[C@H](Cc2c[nH]cn2)NC(C)=O)C(C)C)C(=O)Nc2ccc3c(CC(N)=O)cc(=O)oc3c2)cc1) | – | – | – | – | – | < 10 M⁻¹ s⁻¹ | 2,135,000 M^-1s^-1 | 2,070 M^-1s^-1 | < 10 M⁻¹ s⁻¹ | 3,800 M^-1s^-1 | – |
